Results from ChEMBL document CHEMBL1201862, “PubChem BioAssay data set” (2004).
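96-well plates; 48 h exposure; 5 concentrations. Endpoints by linear interpolation between flanking doses. Not reached: highest tested concentration assigned. Here, GI50 denotes the concentration required for 50% inhibition of growth.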 Activity calls are given as the source filed them. Rule as the data show it: active = GI50 up to about 1.1 µM and inactive = higher.

Assays:
Assay in all cases: NCI tumour cell line growth inhibition, 48 h
SNB-75 = system: SNB-75
NCI-H226 = system: NCI-H226
ACHN = system: ACHN
UACC-257 = system: UACC-257
SNB-78 = system: SNB-78
SNB-19 = system: SNB-19
NCI-H23 = system: NCI-H23
OVCAR-4 = system: OVCAR-4
A549 = system: A549
EKVX = system: EKVX
SK-OV-3 = system: SK-OV-3
SK-MEL-28 = system: SK-MEL-28
UO-31 = system: UO-31
COLO 205 = system: COLO 205
SN12C = system: SN12C
Malme-3M = system: Malme-3M
RXF 393 = system: RXF 393
M14 = system: M14
LXFL 529 = system: LXFL 529
HOP-18 = system: HOP-18
A498 = system: A498
K562 = system: K562
OVCAR-8 = system: OVCAR-8
CAKI-1 = system: CAKI-1
M19-MEL = system: M19-MEL
HT-29 = system: HT-29
HOP-62 = system: HOP-62
KM-20L2 = system: KM-20L2
CCRF-CEM = system: CCRF-CEM
LOX IMVI = system: LOX IMVI
HL-60 = system: HL-60
NCI-H522 = system: NCI-H522
SF-539 = system: SF-539
SF-268 = system: SF-268
HOP-92 = system: HOP-92
DMS-114 = system: DMS-114
DLD-1 = system: DLD-1
MOLT-4 = system: MOLT-4
HCT-116 = system: HCT-116
786-0 = system: 786-0
SK-MEL-5 = system: SK-MEL-5
HCC 2998 = system: HCC 2998
IGROV-1 = system: IGROV-1
SR = system: SR
OVCAR-3 = system: OVCAR-3
KM12 = system: KM12
SF-295 = system: SF-295
U-251 = system: U-251
TK-10 = system: TK-10
SW-620 = system: SW-620
UACC-62 = system: UACC-62
XF498 = system: XF498
NCI-H460 = system: NCI-H460
RPMI-8226 = system: RPMI-8226
OVCAR-5 = system: OVCAR-5
DMS-273 = system: DMS-273
HCT-15 = system: HCT-15
NCI/ADR-RES = system: NCI/ADR-RES
T47D = system: T47D
MDA-MB-435 = system: MDA-MB-435
PC-3 = system: PC-3
DU-145 = system: DU-145
BT-549 = system: BT-549
MCF7 = system: MCF7
Hs-578T = system: Hs-578T
MDA-N = system: MDA-N
MDA-MB-231 = system: MDA-MB-231
SK-MEL-2 = system: SK-MEL-2

Measured: GI50

O=C1N(c2ccccc2)C(=O)C2(SC=NN2Cc2ccccc2)N1c1ccccc1 (stereo unspecified)
inactive: SNB-75 > 100 µM | NCI-H226 > 100 µM | ACHN > 100 µM | UACC-257 > 100 µM | SNB-78 > 100 µM | SNB-19 > 100 µM | NCI-H23 > 100 µM | OVCAR-4 > 100 µM | A549 > 100 µM | EKVX > 100 µM | SK-OV-3 > 100 µM | SK-MEL-28 > 100 µM | UO-31 > 100 µM | COLO 205 > 100 µM | SN12C > 100 µM | Malme-3M > 100 µM | RXF 393 > 100 µM | M14 > 100 µM | LXFL 529 > 100 µM | HOP-18 > 100 µM | A498 > 100 µM | K562 > 100 µM | OVCAR-8 > 100 µM | CAKI-1 > 100 µM | M19-MEL > 100 µM | HT-29 > 100 µM | HOP-62 > 100 µM | KM-20L2 > 100 µM | CCRF-CEM > 100 µM | LOX IMVI > 100 µM | HL-60 51.2 µM | NCI-H522 > 100 µM | SF-539 > 100 µM | SF-268 > 100 µM | HOP-92 > 100 µM | DMS-114 > 100 µM | DLD-1 > 100 µM | MOLT-4 > 100 µM | HCT-116 > 100 µM | 786-0 > 100 µM | SK-MEL-5 > 100 µM | HCC 2998 > 100 µM | IGROV-1 > 100 µM | SR 92.7 µM | OVCAR-3 > 100 µM | KM12 > 100 µM | SF-295 > 100 µM | U-251 > 100 µM | TK-10 > 100 µM | SW-620 > 100 µM | UACC-62 > 100 µM | XF498 > 100 µM | NCI-H460 > 100 µM

COc1cc2c(oc(=O)c3c4occc4cc(OC)c23)c2cccc(O)c12
> 100 µM: HCT-15
inactive: SNB-75 83.6 µM | RPMI-8226 > 100 µM | NCI-H226 > 100 µM | ACHN > 100 µM | UACC-257 > 100 µM | SNB-78 > 100 µM | SNB-19 > 100 µM | NCI-H23 > 100 µM | OVCAR-4 > 100 µM | A549 > 100 µM | EKVX > 100 µM | SK-OV-3 > 100 µM | SK-MEL-28 > 100 µM | UO-31 > 100 µM | COLO 205 > 100 µM | SN12C > 100 µM | Malme-3M > 100 µM | RXF 393 > 100 µM | M14 > 100 µM | LXFL 529 > 100 µM | HOP-18 > 100 µM | A498 > 100 µM | OVCAR-5 > 100 µM | DMS-273 > 100 µM | K562 > 100 µM | OVCAR-8 > 100 µM | CAKI-1 > 100 µM | M19-MEL > 100 µM | HT-29 > 100 µM | HOP-62 > 100 µM | KM-20L2 > 100 µM | CCRF-CEM > 100 µM | LOX IMVI > 100 µM | HL-60 > 100 µM | NCI-H522 > 100 µM | SF-539 > 100 µM | SF-268 > 100 µM | HOP-92 > 100 µM | DMS-114 > 100 µM | DLD-1 > 100 µM | MOLT-4 > 100 µM | HCT-116 > 100 µM | 786-0 > 100 µM | SK-MEL-5 > 100 µM | HCC 2998 > 100 µM | IGROV-1 > 100 µM | OVCAR-3 > 100 µM | KM12 > 100 µM | SF-295 > 100 µM | U-251 > 100 µM | TK-10 > 100 µM | SW-620 > 100 µM | UACC-62 > 100 µM | XF498 > 100 µM | NCI-H460 > 100 µM

CC(=O)NCCCCCCNC(C)=O [HEXAMETHYLENEBISACETAMIDE]
inactive: SNB-75 2840 µM | RPMI-8226 4650 µM | NCI-H226 6810 µM | ACHN > 10000 µM | NCI/ADR-RES 7410 µM | UACC-257 7080 µM | SNB-78 6590 µM | SNB-19 8510 µM | NCI-H23 9160 µM | OVCAR-4 6550 µM | A549 2290 µM | EKVX 7280 µM | SK-OV-3 8930 µM | SK-MEL-28 6980 µM | UO-31 5250 µM | COLO 205 5380 µM | SN12C 7500 µM | Malme-3M 3160 µM | RXF 393 9860 µM | M14 6040 µM | T47D > 5680 µM | MDA-MB-435 4010 µM | PC-3 8180 µM | HOP-18 7530 µM | DU-145 > 8830 µM | A498 5790 µM | BT-549 > 10000 µM | MCF7 3480 µM | OVCAR-5 8240 µM | DMS-273 3600 µM | K562 5740 µM | OVCAR-8 7620 µM | CAKI-1 1790 µM | M19-MEL 5750 µM | HT-29 4840 µM | HOP-62 6590 µM | KM-20L2 5220 µM | CCRF-CEM 7670 µM | LOX IMVI 4680 µM | HL-60 3450 µM | NCI-H522 3230 µM | SF-539 6070 µM | SF-268 8910 µM | HOP-92 3560 µM | DMS-114 3860 µM | Hs-578T 5790 µM | DLD-1 8240 µM | MOLT-4 7280 µM | HCT-116 8470 µM | 786-0 > 10000 µM | MDA-N 7570 µM | SK-MEL-5 6700 µM | HCC 2998 4290 µM | IGROV-1 9180 µM | SR > 8530 µM | MDA-MB-231 4180 µM | OVCAR-3 8180 µM | KM12 8450 µM | SF-295 6370 µM | U-251 7830 µM | SK-MEL-2 6590 µM | TK-10 4300 µM | SW-620 > 3570 µM | UACC-62 4050 µM | XF498 3180 µM | NCI-H460 4810 µM
5530 µM: HCT-15
